Legend:
Pooled human plasma = experiment: In vitro anticoagulant effect in human plasma (aPTT, EC1.5x); format: biochemical; details: 37 °C for 10 minutes
Method: aPTT (Lot 220106600), Calcium Chloride (Lot 210305600), Needle Rinse Solution (Lot 211101300): produced by Shenzhen Mindray Bio-Medical Electronics Co., Ltd. Pooled human plasma: collected from healthy individuals using disposable venous blood collection tubes (Liuyang Sanli Medical Technology Development Co., Ltd., Lot 211108, sodium citrate 9:1). Blood was collected, centrifuged at room temperature at 3000 rpm for 10 minutes, and the supernatant was collected and stored for use (Lot 20220606).
Test compounds dissolved in 100% DMSO at 10 mM were diluted with 100% DMSO to concentrations of 0.29 µM, 0.59 µM, 1.17 µM, 2.34 µM, 4.69 µM, 9.38 µM, 18.75 µM, and 37.50 µM. Then 99 µL of pooled human plasma was added to each 1.5 mL centrifuge tube, followed by the addition of 1 µL of compound at different concentrations; 1 µL of DMSO was added to the blank control. The tubes were mixed by repeated manual inversion, centrifuged briefly using a mini centrifuge to collect the samples, and then incubated in a thermostatic water bath at 37 °C for 10 minutes with mixing. The aPTT was measured using a fully automated coagulation analyzer according to the preset program.
Curve fitting was performed using GraphPad Prism software to calculate EC1.5x.

Human Factor XIa = Human Factor XIa (Homo sapiens, UniProt P03951); experiment: Inhibition of human coagulation Factor XIa by absorbance method (S-2366 substrate, 405 nm); format: biochemical; details: incubated at 37 °C for 20 minutes; substrate 800 µM; read-out: Recombinant Enzyme FXIa IC50
Method: • Enzyme: Human Factor XIa (ENZYME […], Cat. No. HFXIa 1111a) • Substrate: S-2366™ (CHROMOGENIX, Cat. No. 82109039) • Buffer: 145 mM NaCl, 5 mM KCl, 1 mg/mL PEG 8000, 30 mM HEPES, pH 7.4.
Test compounds dissolved in 100% DMSO at 10 mM were diluted with 100% DMSO to concentrations of 1000 µM, 200 µM, 40 µM, 8 µM, 1.6 µM, 0.32 µM, 0.064 µM, 0.0128 µM, 0.00256 µM, and […]. Then 98 µL of FXIa enzyme solution (77.7 ng/mL) was added to each well of a 96-well plate, with 98 µL of buffer added to blank wells instead. Then, 2 µL of compound at different concentrations was added; DMSO was used instead for blank and control wells. The plate was mixed using a plate shaker and incubated at 37 °C for 20 minutes.
Finally, 100 µL of substrate (800 µM) was added to each well, and the absorbance was measured at 405 nm.
Curve fitting was performed using GraphPad Prism software to calculate the IC50 values.

[1] = Pharmacokinetic experiment in rats (iv and PO); details: male, Sprague-Dawley (SD), rat, plasma, 5 mg/kg
Description: Polyethylene glycol 400 (PEG-400, Lot GORKREUT, Shaen Chemical Technology (Shanghai) Co., Ltd.), DMSO (Lot 20200319, Guangdong Guanghua Sci-Tech Co., Ltd.), normal saline (Lot C20052604, Jiangxi Kelun Pharmaceutical Co., Ltd.). LC-MS instrument (Thermo Fisher Ultimate 3000 UPLC, TSQ QUANTUM ULTRA triple quadrupole mass spectrometer, AB SCIEX 5500 QTARP).
SD rats: Male, 180-250 g, purchased from Guangdong Vital River Laboratory Animal Technology Co., Ltd.
The test compound powder was accurately weighed, completely dissolved in DMSO, then PEG-400 was added. The mixture was vortexed and sonicated to mix, followed by the addition of normal saline. The mixture was vortexed and sonicated again to achieve a final concentration of 0.5 mg/mL (DMSO:PEG-400:NS = 5:60:35, V/V/V). The dosing volume was 10 mL/kg for oral gavage and 0.5 mL/kg for intravenous administration.
After intravenous or oral administration to rats, 200 µL of venous blood was collected at 5 min (not collected for oral group), 15 min, 30 min, 1 h, 2 h, 5 h, 7 h, and 24 h into heparinized EP tubes. The blood was centrifuged at 12,000 rpm for 2 minutes, and the plasma was collected and stored at -80 °C until analysis.
A precise amount of the test compound was weighed and dissolved in DMSO to 1 mg/mL as a stock solution. An appropriate volume of the compound stock solution was accurately pipetted and diluted with acetonitrile to prepare standard series solutions. 20 µL of each standard series solution was accurately pipetted and added to 180 µL of blank plasma, vortexed to mix, to prepare plasma samples equivalent to plasma concentrations of 1 ng/mL, 3 ng/mL, 10 ng/mL, 30 ng/mL, 100 ng/mL, 300 ng/mL, 1000 ng/mL, 3000 ng/mL, and 5000 ng/mL. Each concentration was analyzed in duplicate to establish the standard curve. 20 µL of plasma sample was taken, and 200 µL of an internal standard (propranolol, 5 ng/mL) in acetonitrile solution was added. The mixture was vortexed and centrifuged at 4000 rpm for 5 minutes. The supernatant was taken for LC-MS analysis. The LC-MS detection conditions were as follows: Chromatographic Column: Waters ACQUITY™ PREMIER HSS T3, 50*2.1 mm, 1.8 µm.
Mobile phase A: water (0.1% formic acid), mobile phase B: acetonitrile, flow rate: 0.5 mL/min, gradient elution: see Table 2 below.
After determining the plasma drug concentration by LC-MS, the pharmacokinetic parameters following administration to rats were calculated using the non-compartmental model in WinNonlin 6.1 software.

Sequence of Human Factor XIa (P03951 388-625 limits assumed): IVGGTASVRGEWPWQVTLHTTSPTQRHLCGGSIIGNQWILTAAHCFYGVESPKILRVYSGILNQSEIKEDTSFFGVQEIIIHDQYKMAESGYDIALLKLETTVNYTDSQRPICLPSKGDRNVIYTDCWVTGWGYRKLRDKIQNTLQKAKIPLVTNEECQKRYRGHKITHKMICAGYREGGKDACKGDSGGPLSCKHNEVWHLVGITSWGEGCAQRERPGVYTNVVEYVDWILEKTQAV
Sequence of Human Factor XIa (P03951 19-387 partner limits assumed): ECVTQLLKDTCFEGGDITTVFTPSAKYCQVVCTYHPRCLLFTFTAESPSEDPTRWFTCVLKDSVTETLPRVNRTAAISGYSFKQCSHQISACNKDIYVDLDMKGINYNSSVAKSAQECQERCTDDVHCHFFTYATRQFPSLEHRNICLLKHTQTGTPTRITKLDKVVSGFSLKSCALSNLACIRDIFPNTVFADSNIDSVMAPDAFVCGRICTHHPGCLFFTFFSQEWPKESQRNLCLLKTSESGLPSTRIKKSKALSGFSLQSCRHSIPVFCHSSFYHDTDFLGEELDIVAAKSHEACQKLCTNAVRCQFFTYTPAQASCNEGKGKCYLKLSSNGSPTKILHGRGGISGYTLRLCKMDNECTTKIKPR

[2H]C([2H])([2H])n1ncc2c1-c1cc(F)c(F)c(c1)[C@@H](n1cnc(-c3cc(Cl)ccc3-n3cc(C(F)(F)F)nn3)cc1=O)CCC[C@@H](C)C(=O)N2 [Compound 2, (3R,7R)-3-(4-(5-chloro-2-(4-(trifluoromethyl)-1H-1,2,3-triazol-1-yl)phenyl) -6-oxopyrimidin-1(6H)-yl)-2^42^5-difluoro-7-methyl-1^1-(methyl-d3)-1^1H-9-aza-1(5,4)-pyrazola-2(1,3)-benzenacyclononaphan-8-one]
Human Plasma APTT 1.5x (Pooled human plasma): 0.24 µM
IC50 (Human Factor XIa): 0.36 nM

[2H]C([2H])([2H])n1ncc2c1-c1cc(F)c(F)c(c1)[C@@H](n1cnc(-c3c(-n4cc(Cl)nn4)ccc(Cl)c3F)cc1=O)CCC[C@@H](C)C(=O)N2 [Compound 3, (3S,7R)-3-(4-(3-chloro-6-(4-chloro-1H-1,2,3-triazol-1-yl)-2-fluorophenyl)-6-oxopyrimidin-1(6H)-yl)-2^4,2^5-difluoro-7-methyl-1^1-(methyl-d3)-1^1H-9-aza-1(5,4)-pyrazola-2(1,3)-benzenacyclononaphan-8-one]
Human Plasma APTT 1.5x (Pooled human plasma): 0.24 µM
IC50 (Human Factor XIa): 0.61 nM
bioavailability [1]: 15.7%

[2H]C([2H])([2H])n1ncc2c1-c1cc(F)c(F)c(c1)[C@@H](n1ncc(-c3cc(Cl)ccc3-n3cc(C(F)(F)F)nn3)cc1=O)CCC[C@@H](C)C(=O)N2 [Compound 5, (3S,7R)-3-(4-(5-chloro-2-(4-(trifluoromethyl)-1H-1,2,3-triazol-1-yl)phenyl) -6-oxopyridazin-1(6H)-yl)-2^4,2^5-difluoro-7-methyl-1^1-(methyl-d3)-1^1H-9-aza-1(5,4)-pyrazola-2(1,3)-benzenacyclononaphan-8-one]
Human Plasma APTT 1.5x (Pooled human plasma): 0.83 µM
IC50 (Human Factor XIa): 0.89 nM

[2H]C([2H])([2H])n1ncc2c1-c1cc(F)c(F)c(c1)[C@@H](n1ncc(-c3c(-n4cc(C(F)(F)F)nn4)ccc(Cl)c3F)c(Cl)c1=O)CCC[C@@H](C)C(=O)N2 [Compound 6, (3S,7R)-3-(5-chloro-4-(3-chloro-2-fluoro-6-(4-(trifluoromethyl)-1H-1,2,3-triazol-1-yl)phenyl)-6-oxopyridazin-1(6H)-yl)-2^42^5-difluoro-7-methyl-1^1-(methyl-d3)-1^1H-9-aza-1(5,4)-pyrazola-2(1,3)-benzenacyclononaphan-8-one]
Human Plasma APTT 1.5x (Pooled human plasma): 0.43 µM
IC50 (Human Factor XIa): 1.06 nM
bioavailability [1]: 14.1%

[2H]C([2H])([2H])n1ncc2c1-c1cc(F)c(F)c(c1)[C@@H](n1ccc(-c3cc(Cl)ccc3-n3cc(C(F)(F)F)nn3)cc1=O)CCC[C@@H](C)C(=O)N2 [Compound 7, (3S,7R)-3-(4-(5-chloro-2-(4-(trifluoromethyl)-1H-1,2,3-triazol-1-yl)phenyl) -2-oxopyridin-1(2H)-yl)-2^4,2^5-difluoro-7-methyl-1^1-(methyl-d3)-1^1H-9-aza-1(5,4)-pyrazola-2 (1,3)-benzenacyclononaphan-8-one]
Human Plasma APTT 1.5x (Pooled human plasma): 0.22 µM
IC50 (Human Factor XIa): 0.34 nM

[2H]C([2H])([2H])n1ncc2c1-c1cc(F)c(F)c(c1)[C@@H](n1ccc(-c3cc(Cl)ccc3-n3cc(C(F)(F)F)nn3)c(Cl)c1=O)CCC[C@@H](C)C(=O)N2 [Compound 8, (3S,7R)-3-(4-(5-chloro-2-(4-(trifluoromethyl)-1H-1,2,3-triazol-1-yl)phenyl) -3-chloro-2-oxopyridin-1(2H)-yl)-2^4,2^5-difluoro-7-methyl-1^1-(methyl-d3)-1^1H-9-aza-1(5,4)-p yrazola-2(1,3)-benzenacyclononaphan-8-one]
IC50 (Human Factor XIa): 0.15 nM

[2H]C([2H])([2H])n1ncc2c1-c1cc(F)c(F)c(c1)[C@@H](n1ccc(-c3cc(Cl)ccc3-n3cc(C(F)(F)F)nn3)c(F)c1=O)CCC[C@@H](C)C(=O)N2 [Compound 9, (3S,7R)-3-(4-(5-chloro-2-(4-(trifluoromethyl)-1H-1,2,3-triazol-1-yl)phenyl)-3-fluoro-2-oxopyridin-1(2H)-yl)-2^4,2^5-difluoro-7-methyl-1^1-(methyl-d3)-1^1H-9-aza-1 (5,4)-pyrazola-2(1,3)-benzenacyclononaphan-8-one]
IC50 (Human Factor XIa): 0.3 nM

[2H]C([2H])([2H])n1ncc2c1-c1cc(F)c(F)c(c1)[C@@H](n1ccc(-c3cc(Cl)ccc3-n3cc(C(F)F)nn3)cc1=O)CCC[C@@H](C)C(=O)N2 [Compound 10, (3S,7R)-3-(4-(5-chloro-2-(4-(difluoromethyl)-1H-1,2,3-triazol-1-yl)phenyl)-2-oxopyridin-1(2H)-yl)-2^4,2^5-difluoro-7-methyl-1^1-(methyl-d3)-1^1H-9-aza-1(5,4)-pyrazola-2(1,3)-benzenacyclononaphan-8-one]
Human Plasma APTT 1.5x (Pooled human plasma): 0.20 µM
IC50 (Human Factor XIa): 0.77 nM

C[C@@H]1CCC[C@H](n2cnc(-c3c(-n4cc(C(F)(F)F)nn4)ccc(Cl)c3F)cc2=O)c2cc(cc(F)c2F)-c2c(cnn2C(F)F)NC1=O [Compound 11, (3S,7R)-3-(4-(3-chloro-2-fluoro-6-(4-(trifluoromethyl)-1H-1,2,3-triazol-1-yl)phenyl)-6-oxopyrimidin-1(6H)-yl)-2^4,2^5-difluoro-7-methyl-1^1-difluoromethyl-1^1H-9-aza-1 (5,4)-pyrazola-2(1,3)-benzenacyclononaphan-8-one]
Human Plasma APTT 1.5x (Pooled human plasma): 0.23 µM
IC50 (Human Factor XIa): 0.29 nM
bioavailability [1]: 21.6%

C[C@@H]1CCC[C@H](n2cnc(-c3c(-n4cc(Cl)nn4)ccc(Cl)c3F)cc2=O)c2cc(cc(F)c2F)-c2c(cnn2C(F)F)NC1=O [Compound 13, (3S,7R)-3-(4-(3-chloro-6-(4-chloro-1H-1,2,3-triazol-1-yl)-2-fluorophenyl)-6-oxopyrimidin-1(6H)-yl)-2^4,2^5-difluoro-7-methyl-1^1-difluoromethyl-1^1H-9-aza-1(5,4)-pyraz ola-2(1,3)-benzenacyclononaphan-8-one]
IC50 (Human Factor XIa): 0.4 nM

C[C@@H]1CCC[C@H](n2cnc(-c3cc(Cl)ccc3-n3cc(Cl)nn3)cc2=O)c2cc(cc(F)c2F)-c2c(cnn2C(F)F)NC1=O [Compound 14, (3S,7R)-3-(4-(5-chloro-2-(4-chloro-1H-1,2,3-triazol-1-yl)phenyl)-6-oxopyrimidin-1(6H)-yl)-2^4,2^5-difluoro-7-methyl-1^1-difluoromethyl-1^1H-9-aza-1(5,4)-pyrazol a-2(1,3)-benzenacyclononaphan-8-one]
IC50 (Human Factor XIa): 0.38 nM

— patent EP4737457A1, “POLYSUBSTITUTED MACROCYCLIC COMPOUND, AND PREPARATION METHOD THEREFOR AND USE THEREOF” (Shenzhen Salubris Pharmaceuticals Co., Ltd., priority 2023, dated 2025)
